PubChem BioAssay AID330 (DTP/NCI, 2004)
Values joined by “and” are separate entries in the source; they are usually repeats but may differ in a detail not shown here. Equal entries are not always repeated. Inconclusive results and toxic doses are left out.

System: P388 leukemia ip, CD2F1 mice, survival T/C
Assay: NCI In Vivo Anticancer Drug Screen. Data for tumor model P388 Leukemia (intraperitoneal) in CD2F1 (CDF1) mice
Details: endpoint: median survival time, higher = longer survival
Summary of the method: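 Mice carrying the transplanted tumor received test compound or vehicle. Survival was recorded in each group, and the value is the treated-group measurement divided by that of the vehicle-treated control group.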

[1] = dose: 25.0 mg/kg/injection, schedule: Q01DX009 (ip), vehicle: saline with Tween-80
[2] = dose: 50.0 mg/kg/injection, schedule: Q01DX009 (ip), vehicle: saline with Tween-80
[3] = dose: 100.0 mg/kg/injection, schedule: Q01DX009 (ip), vehicle: saline with Tween-80
[4] = dose: 200.0 mg/kg/injection, schedule: Q01DX009 (ip), vehicle: saline with Tween-80
[5] = dose: 50.0 mg/kg/injection, schedule: Q01DX005 (ip), vehicle: saline
[6] = dose: 100.0 mg/kg/injection, schedule: Q01DX005 (ip), vehicle: saline
[7] = dose: 200.0 mg/kg/injection, schedule: Q01DX005 (ip), vehicle: saline
[8] = dose: 60.0 mg/kg/injection, schedule: Q01DX005 (ip), vehicle: saline with Tween-80
[9] = dose: 120.0 mg/kg/injection, schedule: Q01DX005 (ip), vehicle: saline with Tween-80
[10] = dose: 240.0 mg/kg/injection, schedule: Q01DX005 (ip), vehicle: saline with Tween-80
[11] = dose: 50.0 mg/kg/injection, schedule: Q01DX005 (ip), vehicle: Klucel (hydroxypropylcellulose) (HPC)
[12] = dose: 100.0 mg/kg/injection, schedule: Q01DX005 (ip), vehicle: Klucel (hydroxypropylcellulose) (HPC)
[13] = dose: 200.0 mg/kg/injection, schedule: Q01DX005 (ip), vehicle: Klucel (hydroxypropylcellulose) (HPC)
[14] = dose: 60.0 mg/kg/injection, schedule: Q01DX005 (ip), vehicle: Klucel (hydroxypropylcellulose) (HPC)
[15] = dose: 120.0 mg/kg/injection, schedule: Q01DX005 (ip), vehicle: Klucel (hydroxypropylcellulose) (HPC)
[16] = dose: 50.0 mg/kg/injection, schedule: Q01DX009 (ip), vehicle: Klucel (hydroxypropylcellulose) (HPC)
[17] = dose: 100.0 mg/kg/injection, schedule: Q01DX009 (ip), vehicle: Klucel (hydroxypropylcellulose) (HPC)
[18] = dose: 200.0 mg/kg/injection, schedule: Q01DX009 (ip), vehicle: Klucel (hydroxypropylcellulose) (HPC)
[19] = dose: 100.0 mg/kg/injection, schedule: Q01DX001 (ip), vehicle: Klucel (hydroxypropylcellulose) (HPC)
[20] = dose: 200.0 mg/kg/injection, schedule: Q01DX001 (ip), vehicle: Klucel (hydroxypropylcellulose) (HPC)
[21] = dose: 100.0 mg/kg/injection, schedule: Q04DX002 (ip), vehicle: saline with Tween-80

Compound: COc1cc2oc(=O)cc(C)c2cc1[N+](=O)[O-]
- T/C (dose: 50.0 mg/kg/injection, schedule: Q01DX009 (ip), vehicle: suspension in saline): 98 % of control
- T/C (dose: 100.0 mg/kg/injection, schedule: Q01DX009 (ip), vehicle: suspension in saline): 95 % of control
- T/C (dose: 200.0 mg/kg/injection, schedule: Q01DX009 (ip), vehicle: suspension in saline): 96 % of control

Compound: C=CCN(N=Nc1ccc(Cl)cc1)c1ccc(Cl)cc1
- T/C [1]: 104 % of control and 91 % of control
- T/C [2]: 107 % of control and 117 % of control
- T/C [3]: 108 % of control and 111 % of control
- T/C [4]: 110 % of control and 117 % of control and 118 % of control

Compound: Cc1ccc(C(=O)N/N=C/c2cccc(C(N)=S)c2)cc1
- T/C (dose: 100.0 mg/kg/injection, schedule: Q01DX001 (ip), vehicle: saline): 88 % of control
- T/C (dose: 200.0 mg/kg/injection, schedule: Q01DX001 (ip), vehicle: saline): 87 % of control
- T/C (dose: 400.0 mg/kg/injection, schedule: Q01DX001 (ip), vehicle: saline): 86 % of control

Compound: C1COCCNCCOCCOCCN1
- T/C [5]: 95 % of control
- T/C [6]: 106 % of control
- T/C [7]: 95 % of control

Compound: CN(C)CCOc1ccc(/C=C2\CCc3ccccc3C2=O)cc1
- T/C [8]: 97 % of control
- T/C [9]: 94 % of control
- T/C [10]: 95 % of control

Compound: COC(=O)CCn1nc(-c2ccccc2)c(-c2ccccc2)c(S(C)(=O)=O)c1=O
- T/C (dose: 25.0 mg/kg/injection, schedule: Q04DX002 (ip), vehicle: distilled water + Tween-80): 95 % of control
- T/C (dose: 50.0 mg/kg/injection, schedule: Q04DX002 (ip), vehicle: distilled water + Tween-80): 92 % of control
- T/C (dose: 200.0 mg/kg/injection, schedule: Q04DX002 (ip), vehicle: distilled water + Tween-80): 90 % of control

Compound: CNC(=O)c1n[nH]c(C)c1N
- T/C (dose: 12.5 mg/kg/injection, schedule: Q04DX003 (ip), vehicle: water): 94 % of control
- T/C (dose: 25.0 mg/kg/injection, schedule: Q04DX003 (ip), vehicle: water): 100 % of control
- T/C (dose: 50.0 mg/kg/injection, schedule: Q04DX003 (ip), vehicle: water): 103 % of control
- T/C (dose: 100.0 mg/kg/injection, schedule: Q04DX003 (ip), vehicle: water): 103 % of control
- T/C (dose: 200.0 mg/kg/injection, schedule: Q04DX003 (ip), vehicle: water): 99 % of control

Compound: COC(=S)SSC(=S)NCC(C)NC(=S)SSC(=S)OC (stereo not drawn)
- T/C [11]: 103 % of control
- T/C [12]: 103 % of control
- T/C [13]: 105 % of control

Compound: C(=C1c2ccccc2-c2ccccc21)c1ccccc1
- T/C (dose: 100.0 mg/kg/injection, schedule: Q04DX003 (ip), vehicle: saline with Tween-80): 100 % of control
- T/C (dose: 200.0 mg/kg/injection, schedule: Q04DX003 (ip), vehicle: saline with Tween-80): 100 % of control
- T/C (dose: 400.0 mg/kg/injection, schedule: Q04DX003 (ip), vehicle: saline with Tween-80): 100 % of control

Compound: CC1(C)C=C(Cc2ccccc2)C(=O)c2ccccc21
- T/C [3]: 90 % of control
- T/C [4]: 100 % of control
- T/C (dose: 400.0 mg/kg/injection, schedule: Q01DX009 (ip), vehicle: saline with Tween-80): 95 % of control

Compound: COc1ccc(C2CC(C)(O)Oc3cc4c(cc32)OCO4)cc1 (stereo not drawn)
- T/C [14]: 97 % of control
- T/C [15]: 89 % of control

Compound: CNC(=O)NC1OC(CO)C(O)C1O (stereo not drawn)
- T/C (dose: 100.0 mg/kg/injection, schedule: Q01DX001 (ip), vehicle: water): 97 % of control
- T/C (dose: 200.0 mg/kg/injection, schedule: Q01DX001 (ip), vehicle: water): 103 % of control
- T/C (dose: 400.0 mg/kg/injection, schedule: Q01DX001 (ip), vehicle: water): 104 % of control

Compound: O=C1CN2Cc3c(sc4c3CCCC4)N=C2N1
- T/C [11]: 106 % of control
- T/C [12]: 102 % of control
- T/C [13]: 99 % of control

Compound: OCCC(N1CCOCC1)C(O)(c1ccccc1)c1ccccc1 (stereo not drawn)
- T/C [8]: 93 % of control
- T/C [9]: 93 % of control
- T/C [10]: 97 % of control

Compound: COc1cc(OC)cc(C2SCC(=O)N2c2nncs2)c1 (stereo not drawn)
- T/C [8]: 107 % of control
- T/C [9]: 98 % of control
- T/C [10]: 93 % of control

Compound: CN=C(N)N/N=C(\c1ccccc1)c1ccc(Cl)cc1
- T/C (dose: 6.25 mg/kg/injection, schedule: Q04DX002 (ip), vehicle: saline with Tween-80): 102 % of control
- T/C (dose: 12.5 mg/kg/injection, schedule: Q04DX002 (ip), vehicle: saline with Tween-80): 109 % of control
- T/C (dose: 25.0 mg/kg/injection, schedule: Q04DX002 (ip), vehicle: saline with Tween-80): 153 % of control

Compound: Cn1c(=O)c2cn[nH]c2n(C)c1=O
- T/C [16]: 104 % of control
- T/C [17]: 100 % of control
- T/C [18]: 96 % of control

Compound: O=C1C(=Cc2ccc(Cl)cc2)C(=O)N(c2ccccc2)C(=S)N1c1ccccc1
- T/C (dose: 100.0 mg/kg/injection, schedule: Q04DX002 (ip), vehicle: Klucel (hydroxypropylcellulose) (HPC)): 101 % of control
- T/C (dose: 200.0 mg/kg/injection, schedule: Q04DX002 (ip), vehicle: Klucel (hydroxypropylcellulose) (HPC)): 93 % of control
- T/C (dose: 400.0 mg/kg/injection, schedule: Q04DX002 (ip), vehicle: Klucel (hydroxypropylcellulose) (HPC)): 89 % of control

Compound: COC(=O)C1=COC(C)C2CN3CCc4c([nH]c5cc(OC)ccc45)C3CC12 (stereo not drawn)
- T/C (dose: 50.0 mg/kg/injection, schedule: Q01DX005 (ip), vehicle: saline with Tween-80): 91 % of control
- T/C (dose: 100.0 mg/kg/injection, schedule: Q01DX005 (ip), vehicle: saline with Tween-80): 109 % of control
- T/C (dose: 200.0 mg/kg/injection, schedule: Q01DX005 (ip), vehicle: saline with Tween-80): 109 % of control

Compound: CS(=O)(=O)OC1C(COC(=O)c2ccccc2)OC(n2ccc(=O)[nH]c2=O)C1O (stereo not drawn)
- T/C [5]: 100 % of control
- T/C [6]: 101 % of control
- T/C [7]: 101 % of control

Compound: CCOc1nc(C(=O)O)cc2sccc12
- T/C [19]: 90 % of control
- T/C [20]: 93 % of control
- T/C (dose: 400.0 mg/kg/injection, schedule: Q01DX001 (ip), vehicle: Klucel (hydroxypropylcellulose) (HPC)): 88 % of control

Compound: N=c1sccn1CC(O)c1ccccc1 (stereo not drawn)
- T/C [19]: 100 % of control
- T/C [20]: 100 % of control

Compound: COC(=O)c1nc2c(n(C)/c1=N/C(=O)Nc1ccccc1)CCCC2
- T/C [1]: 120 % of control
- T/C [2]: 124 % of control
- T/C [3]: 216 % of control
- T/C [4]: 117 % of control

Compound: N/C(=N\O)c1nc2c(N)nc(-c3ccccc3)nc2nc1N
- T/C (dose: 37.5 mg/kg/injection, schedule: Q01DX009 (ip), vehicle: saline with Tween-80): 109 % of control
- T/C (dose: 75.0 mg/kg/injection, schedule: Q01DX009 (ip), vehicle: saline with Tween-80): 95 % of control
- T/C (dose: 150.0 mg/kg/injection, schedule: Q01DX009 (ip), vehicle: saline with Tween-80): 97 % of control

Compound: C1OCN2CSCC12 (stereo not drawn)
- T/C [21]: 116 % of control

Compound: CC(=O)/C=N/OC(=O)c1ccccc1
- T/C [21]: 104 % of control
- T/C (dose: 200.0 mg/kg/injection, schedule: Q04DX002 (ip), vehicle: saline with Tween-80): 99 % of control

Compound: COc1cc2c(cc1OC)-c1nc(Nc3ccccc3)sc1CC2
- T/C [2]: 106 % of control
- T/C [3]: 106 % of control
- T/C [4]: 89 % of control

Compound: Cc1c(OCC(=O)N/N=C/c2ccc(N(CCCl)CCCl)cc2)ccc2c(=O)c3ccccc3oc12
- T/C [14]: 96 % of control
- T/C [15]: 98 % of control

Compound: COC(=O)Nc1nc2ccc(C(=O)OC)cc2[nH]1
- T/C (dose: 100.0 mg/kg/injection, schedule: Q04DX003 (ip), vehicle: saline): 102 % of control
- T/C (dose: 200.0 mg/kg/injection, schedule: Q04DX003 (ip), vehicle: saline): 103 % of control
- T/C (dose: 400.0 mg/kg/injection, schedule: Q04DX003 (ip), vehicle: saline): 103 % of control

Compound: Clc1cc2c(c(CSc3nc4ccccc4n4cccc34)c1)OCOC2
- T/C [16]: 96 % of control
- T/C [17]: 96 % of control
- T/C [18]: 98 % of control
